# The source made the active and inactive calls. The rule behind the calls is not given here.
# Columns and labels:
# [1] = tested on: Hordeum vulgare; experiment: Inhibition of fatty acid synthesis in Hordeum vulgare (barley) using [14C]malonate assessed as [14C]-labeled 20C fatty acid level at 300 uM after 3 hr by liquid scintillation counting (reference value: 6.5 +/- 3.1 %); format: functional; design: scale not given: the % may be the effect or the level left
# [2] = tested on: Cucumis sativus; experiment: Inhibition of fatty acid synthesis in Cucumis sativus (cucumber) using [14C]acetate assessed as [14C]-labeled 18C fatty acid level at 300 uM after 3 hr by liquid scintillation counting (reference value: 33.5 +/- 1.5%); format: functional; design: scale not given: the % may be the effect or the level left
# [3] = tested on: Hordeum vulgare; experiment: Inhibition of fatty acid synthesis in Hordeum vulgare (barley) using [14C]malonate assessed as [14C]-labeled 16C fatty acid level at 300 uM after 3 hr by liquid scintillation counting (reference value: 8.1 %); format: functional; design: scale not given: the % may be the effect or the level left
# [4] = tested on: Cucumis sativus; experiment: Inhibition of fatty acid synthesis in Cucumis sativus (cucumber) using [14C]acetate assessed as reduction in [14C]-labeled 20C fatty acid level at 300 uM after 3 hr by liquid scintillation counting relative to control; format: functional, organism-based
# [5] = tested on: Hordeum vulgare; experiment: Inhibition of fatty acid synthesis in Hordeum vulgare (barley) using [14C]acetate assessed as reduction in [14C]-labeled 24C fatty acid level at 300 uM after 3 hr by liquid scintillation counting; format: functional, organism-based
# [6] = tested on: Cucumis sativus; experiment: Inhibition of fatty acid synthesis in Cucumis sativus (cucumber) using [14C]malonate assessed as [14C]-labeled 18C fatty acid level at 300 uM after 3 hr by liquid scintillation counting (reference value: 14.3 +/- 2%); format: functional; design: scale not given: the % may be the effect or the level left
# [7] = tested on: Cucumis sativus; experiment: Inhibition of fatty acid synthesis in Cucumis sativus (cucumber) using [14C]acetate assessed as [14C]-labeled 16C fatty acid level at 300 uM after 3 hr by liquid scintillation counting (reference value: 27.6 +/- 5.1%); format: functional; design: scale not given: the % may be the effect or the level left
# [8] = tested on: Hordeum vulgare; experiment: Inhibition of fatty acid synthesis in Hordeum vulgare (barley) assessed as inhibition of [14C]acetate incoporation in total fatty acids at 300 uM measured as total disintegration per g of fresh weight after 3 hr by liquid scintillation counting (reference value: 5.8 +/- 1.6 dpm x 10^6 g'1 fresh wt); format: functional
# [9] = tested on: Hordeum vulgare; experiment: Inhibition of fatty acid synthesis in Hordeum vulgare (barley) using [14C]acetate assessed as reduction in [14C]-labeled 20C fatty acid level at 300 uM after 3 hr by liquid scintillation counting; format: functional, organism-based
# [10] = tested on: Hordeum vulgare; experiment: Inhibition of fatty acid synthesis in Hordeum vulgare (barley) using [14C]acetate assessed as reduction in [14C]-labeled 22C fatty acid level at 300 uM after 3 hr by liquid scintillation counting; format: functional, organism-based
# [11] = tested on: Hordeum vulgare; experiment: Inhibition of fatty acid synthesis in Hordeum vulgare (barley) using [14C]acetate assessed as [14C]-labeled 16C fatty acid level at 300 uM after 3 hr by liquid scintillation counting (reference value: 30.6 +/- 0.2%); format: functional; design: scale not given: the % may be the effect or the level left
# [12] = tested on: Cucumis sativus; experiment: Inhibition of fatty acid synthesis in Cucumis sativus (cucumber) using [14C]malonate assessed as [14C]-labeled 24C fatty acid level at 300 uM after 3 hr by liquid scintillation counting (reference value: 26.4 +/- 5.5%); format: functional; design: scale not given: the % may be the effect or the level left
# [13] = tested on: Hordeum vulgare; experiment: Inhibition of fatty acid synthesis in Hordeum vulgare (barley) using [14C]malonate assessed as [14C]-labeled 22C fatty acid level at 300 uM after 3 hr by liquid scintillation counting (reference value: 32.8 +/- 2.3%); format: functional; design: scale not given: the % may be the effect or the level left
# [14] = tested on: Hordeum vulgare; experiment: Inhibition of fatty acid synthesis in Hordeum vulgare (barley) using [14C]malonate assessed as [14C]-labeled 18C fatty acid level at 300 uM after 3 hr by liquid scintillation counting (reference value: 12.5 +/- 3.9 %); format: functional; design: scale not given: the % may be the effect or the level left
# [15] = tested on: Hordeum vulgare; experiment: Inhibition of fatty acid synthesis in Hordeum vulgare (barley) using [14C]acetate assessed as [14C]-labeled 18C fatty acid level at 300 uM after 3 hr by liquid scintillation counting (reference value: 57 +/- 0.9%); format: functional; design: scale not given: the % may be the effect or the level left
# [16] = tested on: Cucumis sativus; experiment: Inhibition of fatty acid synthesis in Cucumis sativus (cucumber) using [14C]malonate assessed as [14C]-labeled 20C fatty acid level at 300 uM after 3 hr by liquid scintillation counting (reference value: 11.7 +/- 2%); format: functional; design: scale not given: the % may be the effect or the level left
# [17] = tested on: Cucumis sativus; experiment: (§1) Inhibition of fatty acid synthesis in Cucumis sativus (cucumber) assessed as inhibition of [14C]acetate incoporation in total fatty acids at 300 uM measured as total disintegration per g of fresh weight after 3 hr by liquid scintillation counting (reference value: 4.4 +/- 1 dpm x 10^6 g'1 fresh wt); format: functional
# [18] = tested on: Hordeum vulgare; experiment: Inhibition of fatty acid synthesis in Hordeum vulgare (barley) assessed as inhibition of [14C]malonate incoporation in total fatty acids at 300 uM measured as total disintegration per g of fresh weight after 3 hr by liquid scintillation counting (reference value: 9.4 +/- 2.5 dpm x 10^6 g'1 fresh wt); format: functional
# [19] = tested on: Cucumis sativus; experiment: Inhibition of fatty acid synthesis in Cucumis sativus (cucumber) using [14C]malonate assessed as [14C]-labeled 22C fatty acid level at 300 uM after 3 hr by liquid scintillation counting (reference value: 42.5 +/- 0.6%); format: functional; design: scale not given: the % may be the effect or the level left
# [20] = tested on: Cucumis sativus; experiment: as §1, with “of [14C]malonate” for “of [14C]acetate”, “value: 16.3” for “value: 4.4”, “+/- 1.1” for “+/- 1”; format: functional
# [21] = tested on: Hordeum vulgare; experiment: Inhibition of fatty acid synthesis in Hordeum vulgare (barley) using [14C]malonate assessed as [14C]-labeled 24C fatty acid level at 300 uM after 3 hr by liquid scintillation counting (reference value: 16.2 +/- 1.1 %); format: functional; design: scale not given: the % may be the effect or the level left
# [22] = tested on: Cucumis sativus; experiment: Inhibition of fatty acid synthesis in Cucumis sativus (cucumber) using [14C]malonate assessed as [14C]-labeled 16C fatty acid level at 300 uM after 3 hr by liquid scintillation counting (reference value: 5.1 +/- 0.9%); format: functional; design: scale not given: the % may be the effect or the level left
compound,measurement,setting,value
COCCN(C(=O)CCl)c1c(C)cccc1C [DIMETHACHLOR],Activity,[1],8.5%
same,Activity,[2],63.9%
same,Activity,[3],14%
same,inhibition,[4],Active
same,inhibition,[5],Active
same,Activity,[6],46.8%
same,Activity,[7],36.2%
same,Activity,[8],5.9 ×10⁶ dpm
same,inhibition,[9],Active
same,inhibition,[10],Active
same,Activity,[11],36.1%
same,Activity,[12],9.3%
same,Activity,[13],18.1%
same,Activity,[14],7.3%
same,Activity,[15],63.9%
same,Activity,[16],11.2%
same,Activity,[17],2.9 ×10⁶ dpm
same,Activity,[18],6.8 ×10⁶ dpm
same,Activity,[19],12.5%
same,Activity,[20],9.4 ×10⁶ dpm
same,Activity,[21],5.8%
same,Activity,[22],20.4%

# Reference: ChEMBL document CHEMBL3044779, “The action of herbicides on fatty acid biosynthesis and elongation in barley and cucumber” (Pest Manag Sci, 2010)
